Measured values from patent US8304452B2, “Radical scavenger and active oxygen eliminating agent” (InBiotex Inc., priority 2005, dated 2012).

Experiments:
[1] = DPPH-scavenging activity versus N-acetyl-L-carnosine (Example 6); type: biochemical; details: 60 μM DPPH, 5 minutes; FIG. 6
Experimental: 5-S-GAD or N-acetyl-L-carnosine was added to an ethanol solution of 60 μM DPPH for reaction at ambient temperature for 5 minutes. Subsequently, the concentration of the DPPH radical was measured via the absorbance at 517 nm. The DPPH radical concentration in a reaction solution to which distilled water instead of the test substance solution was added, was used as a control. In the same manner as in Example 2, the scavenging ratio (%) of the DPPH radical was calculated and defined as the radical-scavenging activity (see FIG. 6).

[2] = DPPH-scavenging activity versus TEMPOL (Example 5); type: biochemical; details: 60 μM DPPH, 1 to 1000 μM test substance, 5 minutes; FIG. 5
Experimental: 5-S-GAD or TEMPOL was added to an ethanol solution of 60 μM DPPH to a final concentration of 1 to 1000 μM, for reaction at ambient temperature for 5 minutes. Subsequently, the concentration of the DPPH radical was measured via the absorbance at 517 nm. The DPPH radical concentration in a reaction solution to which PBS(−) instead of the test substance was added, was used as a control. In the same manner as in Example 2, the scavenging ratio (%) of the DPPH radical was calculated and defined as the radical-scavenging activity (see FIG. 5).

[3] = system: chicken egg chorioallantois; assay: Vascularization-suppressing action, chicken egg chorioallantois (Example 10); type: in vivo; details: 10 μL in 1% methylcellulose inside ring, 37° C., 48 hours; FIG. 10
Experimental: A ring of a 3-mm diameter was placed on a chicken egg chorioallantois on day 5 after oviposition. 10 μL of the test substance diluted with 1% methylcellulose was added inside the ring. After incubation at 37° C. for 48 hours, fat emulsion was injected into the chorioallantois. A part from which the ring was displaced was photographed. Using an image analysis software (Kurabo Industries, Ltd.), the vascular area was measured.

[4] = system: VEGF-triggered vascularization; assay: Vascularization-suppressing action, VEGF matrigel plug (Example 9); type: in vivo, C57BL/6 mice; details: 40 μM in matrigel plug containing 100 ng/mL VEGF; 6 days later; P<0.05; FIG. 9
Experimental: 5-S-GAD was added to a matrigelplug containing 100 ng/mL VEGF, for injections into female C57BL/6 mice. 6 days later, the matrigel plug was scissored out, to assay the hemoglobin content in the matrigel. The results are shown in mean±standard deviation. Testing were done by the Student's t test (*P<0.05).

[5] = Superoxide anion-scavenging activity, xanthine/xanthine oxidase, lucigenin chemiluminescence (Example 3); type: biochemical; details: for Radical-scavenging ratio (%) (superoxide anion-scavenging activity): chemiluminescence AUC over 10 minutes, control = 100, mean, n=2
Experimental: In a 50 mM carbonate buffer (pH 10) containing 200 μM lucigenin, 100 μM xanthine and 1 mU/mL xanthine oxidase reacted together. The chemiluminescence level depending on the generated superoxide anion (O^2−) was assayed with BIOLUMAT (under trade name) (Model type LB 9505, manufactured by EG&G BERTHORD Company) for 10 minutes. The area under the curve indicating the total chemiluminescence over the 10 minutes was calculated. Defining the area under the curve for a group (control) added with PBS(−) instead of the test substance solution at the same amount as that of the solution as 100, the effect of N-β-alanyl-5-S-glutathionyl-3,4-dihydroxyphenylalanine (5-S-GAD) (Table 4) or Carnosine (under trade name) (Table 5) on the increase of chemiluminescence was examined. The suppressive activity thereof was defined as superoxide anion-scavenging activity (%) (mean, n=2; see Table 4, Table 5 and FIG. 3).

SMILES: NCCC(=O)N[C@@H](Cc1cc(O)c(O)c(SC[C@H](NC(=O)CC[C@H](N)C(=O)O)C(=O)NCC(=O)O)c1)C(=O)O [5-S-GAD, N-β-alanyl-5-S-glutathionyl-3,4-dihydroxyphenylalanine]
- DPPH radical-scavenging action compared with N-acetyl-L-carnosine (in words) [1]: excellent DPPH radical-scavenging action compared with N-acetyl-L-carnosine
- DPPH radical-scavenging action compared with TEMPOL (in words) [2]: excellent DPPH radical-scavenging action compared with TEMPOL
- suppression of vascularization (vascular area) [3]: suppressed vascularization significantly
- suppression of VEGF-triggered vascularization (hemoglobin content in the matrigel) [4]: suppressed significantly
- Radical-scavenging ratio (%) (superoxide anion-scavenging activity) ([5]; 0.1 μM added): −0.75%
- Radical-scavenging ratio (%) (superoxide anion-scavenging activity) ([5]; 1 μM added): 26.03%
- Radical-scavenging ratio (%) (superoxide anion-scavenging activity) ([5]; 10 μM added): 78.28%
- Radical-scavenging ratio (%) (superoxide anion-scavenging activity) ([5]; 100 μM added): 91.19%
- action for scavenging the superoxide anion (O^2−) (in words) ([5]; summary of Table 4, Table 5 and FIG. 3): strong actions for scavenging the superoxide anion (O^2−)
